Source: paper PMC5843817, “Preclinical validations of [^18F]FPyPEGCBT-c(RGDfK): a ^18F-labelled RGD peptide prepared by ligation of 2-cyanobenzothiazole and 1,2-aminothiol to image angiogenesis” (EJNMMI Radiopharmacy and Chemistry, 2016)

Experiments:
[1] = tested on: αVβ3, αVβ5 and α5β1 integrins on U-87 MG cancer cells; assay: [^125I]echistatin displacement cell binding assay, U-87 MG; set-up: species or system human; details: U-87 MG cells; displacement of [^125I]echistatin; 1 h, 37 °C
Method: (§1) In vitro integrin-binding of FPyPEGCBT-c(RGDfK) was evaluated using a standard displacement assay of [^125I]echistatin. U-87 MG and SKOV-3 cells were seeded in 96-well plates 24 h prior to the experiment (U-87 MG, 6 × 10^4 cells per well; SKOV-3, 3 × 10^4 cells per well). On the day of the experiment, the cells were washed twice with binding buffer (20 mM Tris pH 7.4, 150 mM NaCl, 2 mM CaCl2, 1 mM MgCl2, 1 mM MnCl2, 0.1 % BSA), then co-incubated for 1 h at 37 °C in binding buffer with 370 Bq/well [^125I]echistatin (Perkin Elmer, Schwerzenbach, Switzerland) and a concentration range (10^−9 to 10^−4 M) of FPyPEGCBT-c(RGDfK) or c(RGDfV) (PeptaNova, Sandhausen, Germany) as a reference peptide. Cells were then washed three times with binding buffer and lysed in 1 M NaOH. The cell-associated radioactivity was measured in a Wizard^2 2470 γ-counter (Perkin Elmer). The IC50 (Inhibitory Concentration of 50 %) values were calculated by fitting the data by nonlinear regression using GraphPad Prism (GraphPad software, La Jolla, CA, USA).
(§2) Fig. 2 Displacement of [^125I]echistatin by FPyPEGCBT-c(RGDfK). U-87 MG and SKOV-3 cancer cells were co-incubated for 1 h in 96-well plates with 370 Bq/well [^125I]echistatin and a concentration range (10^−9 to 10^−4 M) of FPyPEGCBT-c(RGDfK) or c(RGDfV). After lysis, the cell-associated radioactivity was measured in a γ-counter. […]

[2] = tested on: αVβ3, αVβ5 and α5β1 integrins on SKOV-3 cancer cells; assay: [^125I]echistatin displacement cell binding assay, SKOV-3; set-up: species or system human; details: SKOV-3 cells; displacement of [^125I]echistatin; 1 h, 37 °C
Method: as §1, §2

c(RGDfV)
IC50 [1]: 0.6 µM
IC50 [2]: 0.259 ± 0.002 µM
